The source made the active and inactive calls. No rule for the calls is given here.

Mutagenic call and call data for 19 molecules are collected here from PubChem BioAssay AID1259408 (Genetic Toxicology Data Bank (GENE-TOX), 2018).

For this data set, the system named is GENE-TOX genotoxicity assays, various organisms and cells. Description: GENE-TOX mutagenicity studies. As to conditions: for call: Assay Type: In vivo carcinogenicity studies. The source says: GENE-TOX provides genetic toxicology (mutagenicity) test data from expert peer review of open scientific literature for more than 3,000 chemicals from the United States Environmental Protection Agency (EPA). GENE-TOX was established to select assay systems for evaluation, review data in the scientific literature, and recommend proper testing protocols and evaluation procedures for these systems.
GENE-TOX covers the years 1991 - 1998. It is no longer updated.
This is an archive assay for GENE-TOX mutagenicity studies.

The mark [1] stands for this setting: Species/Cell Type: Nonhuman, Assay Type: Sister-chromatid exchange (SCE) in vitro, Assay Code: SC2+D, Dose Response: With dose response, Evaluation Type: Evaluation B (Post-1980).
The mark [2] stands for this setting: Species/Cell Type: Syrian hamster embryo (SA7/SHE) cells, Assay Type: Cell transformation, viral enhanced, Assay Code: CT7+, Evaluation Type: Evaluation A (Pre-1980).
The mark [3] stands for this setting: Species/Cell Type: Nonhuman, Assay Code: CCG+L, Evaluation Type: Evaluation A (Pre-1980).
Where [4] appears, read: Species/Cell Type: Saccharomyces cerevisiae, Assay Type: Mitotic recombination or gene conversion, Assay Code: YEH-, Evaluation Type: Evaluation A (Pre-1980).
[5] abbreviates: Species/Cell Type: Salmonella typhimurium (one or more of the five standard strains: TA98, TA100, TA1535, TA1537, and TA1538), Assay Type: Histidine reverse gene mutation, Ames assay, Assay Code: SAL-, Evaluation Type: Evaluation A (Pre-1980).
Where [6] appears, read: Species/Cell Type: Salmonella typhimurium (one or more of the five standard strains: TA98, TA100, TA1535, TA1537, and TA1538), Assay Type: Histidine reverse gene mutation, Ames assay, Assay Code: SAL+, Evaluation Type: Evaluation A (Pre-1980).
Where [7] appears, read: Species/Cell Type: Salmonella typhimurium (one or more of the five standard strains: TA98, TA100, TA1535, TA1537, and TA1538), Assay Type: Histidine reverse gene mutation, Ames assay, Assay Code: SALT, Evaluation Type: Evaluation A (Pre-1980).
Setting [8] is: Species/Cell Type: Bacillus subtilis (H17 vs M45), Assay Type: Rec-assay, spot test, DNA effects (bacterial DNA repair), Assay Code: REW+, Evaluation Type: Evaluation A (Pre-1980).
Setting [9] is: Species/Cell Type: Human diploid fibroblasts, Assay Type: Unscheduled DNA synthesis (UDS) in vitro, DNA effects, Assay Code: UDH-, Evaluation Type: Evaluation A (Pre-1980).
Setting [10] is: Species/Cell Type: Nonhuman, Assay Type: Sister-chromatid exchange (SCE) in vitro, Assay Code: SC2+, Evaluation Type: Evaluation B (Post-1980).
Where [11] appears, read: Species/Cell Type: Drosophila melanogaster, Assay Type: Sex-linked recessive lethal gene mutation, Assay Code: SRL+, Evaluation Type: Evaluation A (Pre-1980).

Take `NC(=O)NO`: the mutagenic call by setting is: (Species/Cell Type: Chinese hamster lung (V79) cells, Assay Type: Forward gene mutation at the HPRT or ouabain locus, Assay Code: V79-, Evaluation Type: Evaluation A (Pre-1980)) “inactive; negative”; (Species/Cell Type: Escherichia coli polA (W3119 vs P3478), Assay Type: Rec-assay, DNA effects (bacterial DNA repair), Assay Code: RE1+, Evaluation Type: Evaluation A (Pre-1980)) “active; positive”; (Species/Cell Type: Human lymphocytes or leukocytes, Assay Type: Chromosome aberrations in vitro, Assay Code: CY7+, Evaluation Type: Evaluation A (Pre-1980)) “active; positive”; (Species/Cell Type: Mammalian polychromatic erythrocytes, Assay Type: Micronucleus test, chromosome aberrations, Assay Code: MNTT, Evaluation Type: Evaluation A (Pre-1980)) “no conclusion”; (Species/Cell Type: Mouse (BALB/c-3T3) cells, Assay Type: Cell transformation, Assay Code: CTB-, Evaluation Type: Evaluation A (Pre-1980)) “inactive; negative”; (Species/Cell Type: Mouse, Sex: Male, Assay Type: Sperm morphology, Assay Code: SPI+, Evaluation Type: Evaluation A (Pre-1980)) “active; positive”. Moreover, the mutagenic call was “active; positive” under setting [1]; “inactive; negative” (Species/Cell Type: Nonhuman, Assay Type: Sister-chromatid exchange (SCE) in vitro, Assay Code: SC2-, Evaluation Type: Evaluation A (Pre-1980)); “active; positive” (Species/Cell Type: Saccharomyces cerevisiae, Assay Type: Mitotic recombination or gene conversion, Assay Code: YEC+, Evaluation Type: Evaluation A (Pre-1980)); “active; positive” under setting [2]; “active; positive” (Species/Cell Type: Tradescantia species, Assay Type: Chromosome aberrations, Assay Code: TRC+, Evaluation Type: Evaluation A (Pre-1980)). In addition, the call (Species/Cell Type: Nonhuman, Assay Code: CCGT, Evaluation Type: Evaluation A (Pre-1980)) is listed as “no conclusion”.
For the molecule `O=C=Nc1ccc2ccccc2c1`, the mutagenic call under setting [1] was “active; positive”.
Consider `CN(C)C(=O)N1CC1`, for which the mutagenic call (Species/Cell Type: Schizosaccharomyces pombe, Assay Type: Reverse gene mutation, Assay Code: YEZ+, Evaluation Type: Evaluation A (Pre-1980)) was “active; positive”.
As to `CCNc1nc(NC(C)C)nc(SC)n1`, the mutagenic call (Species/Cell Type: Saccharomyces cerevisiae, Assay Type: Mitotic recombination or gene conversion, Assay Code: YEC-, Evaluation Type: Evaluation A (Pre-1980)) was “inactive; negative”.
Regarding `CO[C@@H]1CC(O[C@H]2CC[C@@]3(C=O)[C@](O)(CC[C@]4(C)[C@]3(C)CC[C@]3(C)[C@@H](C5=CC(=O)OC5)CC[C@@]43O)C2)O[C@H](C)C1O[C@H]1C[C@@H](CO)[C@H](O)[C@@H](O)[C@@H]1O` (stereo partly specified), the mutagenic call (Species/Cell Type: Nonhuman, Assay Type: Sister-chromatid exchange (SCE) in vitro, Assay Code: SC2-, Evaluation Type: Evaluation B (Post-1980)) is “inactive; negative”.
`CCC(Cc1c(I)cc(I)c(N)c1I)C(=O)O` (stereo unspecified): the mutagenic call was “no conclusion” (Species/Cell Type: Human lymphocytes, Assay Type: Sister-chromatid exchange (SCE) in vitro, Assay Code: SCLT, Evaluation Type: Evaluation B (Post-1980)) and “no conclusion” (Species/Cell Type: Human, Assay Type: Sister-chromatid exchange (SCE) in vitro, Assay Code: SC1T, Evaluation Type: Evaluation B (Post-1980)).
Regarding `ClC(Cl)(Cl)C(Cl)(Cl)Cl`, the call under setting [3] is “active; positive”. For the same molecule, the mutagenic call under setting [4] was “inactive; negative” and the mutagenic call under setting [5] is “inactive; negative”.
Regarding `O=C(CCl)CCl`, the mutagenic call (Species/Cell Type: Drosophila melanogaster, Assay Type: Sex-linked recessive lethal gene mutation, Assay Code: SRLT, Evaluation Type: Evaluation A (Pre-1980)) was “no conclusion” and the mutagenic call under setting [6] was “active; positive”.
For `CC1CN(N=O)CC(C)N1C(=O)c1ccccc1` (stereo unspecified), the mutagenic call under setting [7] is recorded as “no conclusion”.
Still for that read-out and setting: in the case of `CCCCN(CC(O)CC(=O)O)N=O` (stereo unspecified) it was “no conclusion”.
Turning to `O=[N+]([O-])O`, the mutagenic call was “active; positive” under setting [8]; “active; positive” (Species/Cell Type: Mammalian polychromatic erythrocytes, Assay Type: Micronucleus test, chromosome aberrations, Assay Code: MNT+U, Dose Response: Unconfirmed positive response, Evaluation Type: Evaluation B (Post-1980)); “inactive; negative” (Species/Cell Type: Syrian hamster embryo (SA7/SHE) cells, Assay Type: Cell transformation, viral enhanced, Assay Code: CT7-, Evaluation Type: Evaluation A (Pre-1980)); “no conclusion” (Species/Cell Type: Syrian hamster embryo (SHE) cells, Assay Type: Cell transformation, clonal assay, Assay Code: CTCT, Evaluation Type: Evaluation A (Pre-1980)).
As for `CC1(C)C(C=C(Cl)Cl)C1C(=O)OCc1cccc(Oc2ccccc2)c1` (stereo unspecified), the mutagenic call runs as follows: under setting [9], “inactive; negative”; under setting [4], “inactive; negative”.
Turning to `Cc1cccn2c1nc1ccc(N)nc12`, the mutagenic call (Species/Cell Type: Human, Assay Type: Sister-chromatid exchange (SCE) in vitro, Assay Code: SC1+D*, Activation: With metabolic activation, Dose Response: With dose response, Evaluation Type: Evaluation B (Post-1980)) is “active; positive”.
Regarding `CCCN(CCC)c1c([N+](=O)[O-])cc(C(F)(F)F)cc1[N+](=O)[O-]`, the mutagenic call is “no conclusion” (Species/Cell Type: Bacillus subtilis (H17 vs M45), Assay Type: Rec-assay, spot test, DNA effects (bacterial DNA repair), Assay Code: REWT, Evaluation Type: Evaluation A (Pre-1980)); “inactive; negative” (Species/Cell Type: Drosophila melanogaster, Assay Type: Sex-linked recessive lethal gene mutation, Assay Code: SRL-, Evaluation Type: Evaluation A (Pre-1980)); “inactive; negative” (Species/Cell Type: Escherichia coli WP2 UVRA, Assay Type: Tryptophan reverse gene mutation, Assay Code: WPU-*, Activation: With metabolic activation, Evaluation Type: Evaluation A (Pre-1980)); “no conclusion” (Species/Cell Type: Escherichia coli polA (W3119 vs P3478), Assay Type: Rec-assay, DNA effects (bacterial DNA repair), Assay Code: RE1T, Evaluation Type: Evaluation A (Pre-1980)); “inactive; negative” under setting [9]; “active; positive” (Species/Cell Type: Neurospora crassa, Assay Type: Aneuploidy, chromosome aberrations, Assay Code: NEN+, Evaluation Type: Evaluation A (Pre-1980)). Besides, the mutagenic call under setting [10] is “active; positive”; the mutagenic call (Species/Cell Type: Saccharomyces cerevisiae, Assay Type: Mitotic recombination or gene conversion, Assay Code: YEH+/-*, Activation: With metabolic activation, Evaluation Type: Evaluation A (Pre-1980)) was “inactive; positive without activation, negative with activation”; the mutagenic call under setting [5] is “inactive; negative”; the mutagenic call (Species/Cell Type: Vicia faba, Assay Type: Chromosome aberrations, Assay Code: VIC+, Evaluation Type: Evaluation A (Pre-1980)) was “active; positive”. The call under setting [3] is “active; positive”.
With `ClCCN(CCCl)c1ccc2ccccc2c1`, the mutagenic call was “active; positive” under setting [11], “active; positive” under setting [6] and “active; positive” under setting [2]. Besides, the call under setting [3] is “active; positive”.
Turning to `CN(C)c1ccc(N=NS(=O)(=O)O)cc1`, the mutagenic call by setting is: under setting [8], “active; positive”; (Species/Cell Type: Escherichia coli WP2, Assay Type: Tryptophan reverse gene mutation, Assay Code: WP2+, Evaluation Type: Evaluation A (Pre-1980)) “active; positive”; (Species/Cell Type: Escherichia coli WP2 UVRA, Assay Type: Tryptophan reverse gene mutation, Assay Code: WPU+, Evaluation Type: Evaluation A (Pre-1980)) “active; positive”; (Species/Cell Type: Human lymphocytes, Assay Type: Sister-chromatid exchange (SCE) in vitro, Assay Code: SCL+D, Dose Response: With dose response, Evaluation Type: Evaluation B (Post-1980)) “active; positive”; (Species/Cell Type: Human, Assay Type: Sister-chromatid exchange (SCE) in vitro, Assay Code: SC1+D, Dose Response: With dose response, Evaluation Type: Evaluation B (Post-1980)) “active; positive”; under setting [10], “active; positive”. Further, the mutagenic call under setting [6] was “active; positive”. The call (Species/Cell Type: Nonhuman, Assay Code: CCG-, Evaluation Type: Evaluation A (Pre-1980)) is “inactive; negative”.
In the case of `Cc1cc2nc3ccc(N(C)C)cc3nc2cc1NC(=O)CN(C)N=O`, the mutagenic call under setting [7] is given as “no conclusion”.
For the molecule `[Cl][Pt]([Cl])([Cl])[Cl]`, the mutagenic call is, setting by setting: under setting [8], “active; positive”; under setting [11], “active; positive”.
With `C[C@@]1(CO)[C@H](O)CC[C@@]2(C)[C@H]1CC[C@H]1C[C@@H]3C[C@@]12CC[C@]3(O)CO`, the mutagenic call (Species/Cell Type: Human lymphocytes, Assay Type: Sister-chromatid exchange (SCE) in vitro, Assay Code: SCL+, Evaluation Type: Evaluation B (Post-1980)) was “active; positive”; the mutagenic call (Species/Cell Type: Human, Assay Type: Sister-chromatid exchange (SCE) in vitro, Assay Code: SC1+, Evaluation Type: Evaluation B (Post-1980)) was “active; positive”; the mutagenic call under setting [1] is “active; positive”.
